Results published in publication PMC10561090, “Modulation of HIV-1 capsid multimerization by sennoside A and sennoside B via interaction with the NTD/CTD interface in capsid hexamer” (Frontiers in Microbiology, 2023).
Where “and” joins values, the source holds several entries; their conditions need not be identical. Equal entries are not always repeated. Where two headings read alike, the source gives them in different places. Where no end group is shown, it is not given here. The star is where a group is joined. Biotin = O=C1N[C@H]2[C@H](CS[C@H]2CCCCC(=O)*)N1

Key:
[1] = target: T1, HIV-1 CA CTD/CAI interaction (Human immunodeficiency virus type 1 group M subtype B, UniProt P12493); assay: biochemical; assay type: binding; settings: for inhibition at 50 µM: read-out: IR (%), inhibitory rate; for IC50: 12-point two-fold dilution 50 to 0.024 μM, n = 3
T1 construct: DNA encoding the CA CTD was cloned into BamHI-NotI sites of prokaryotic expression vector pGEX-4 T-1; made in house; host or cells: E. coli BL21(DE3)
Protocol: The Discovery Probe FDA-approved Drug Library comprised 1,971 compounds, which were available as stock solutions at 10 mM concentrations in DMSO. Primary screening of these compounds was conducted using a previously established HTRF assay ([Zhang et al., 2019]). Briefly, compound (1 μL), CAI-biotin peptide (2 μL) and GST-CA CTD (2 μL) were dispensed into 384-well microplates. After 30 min incubation at room temperature, 5 μL premixed HTRF agents were added. After an additional 1 h incubation at room temperature, the HTRF signal was acquired by reading the plates in a PerkinElmer Envision Multilabel Plate Reader. Data were analyzed and visualized using GraphPad Prism (version 5.0). […] The quality of the assay was determined by calculating the Z’-factor using the following equation: Z’ = 1 - (3 × SDmax + 3 × SDmin) / |μmax - μmin|, where SDmax and SDmin represent the standard deviations of the positive and negative control measurements, respectively, and μmax and μmin represent the means of the respective positive and negative signal controls ([Zhang et al., 1999]).
We screened a library of 1,971 small molecules, all of which were FDA-approved. Each compound was tested in duplicate at a concentration of 50 μM. […] The remaining compounds were further validated through dose–response analysis using the HTRF assay.
Seven hit compounds were repurchased and subjected to a 12-point two-fold serial dilution, from 50 to 0.024 μM. […] This assay was conducted using three different concentrations of the compounds to determine their binding to monomeric CA.

HIV-1 CA monomer (WT) = target: T2, HIV-1 CA monomer (WT) (Human immunodeficiency virus type 1 group M subtype B, UniProt P12493); assay: biochemical; assay type: binding; settings: 7.5–30 μM compound, 1:1 model, mean ± SD
T2 construct: capsid proteins (CA) released by proteolytic processing of Gag; made in house

HIV-1 CA monomer (Y169A) = HIV-1 CA monomer (Y169A) (Human immunodeficiency virus type 1 group M subtype B, UniProt P12493, Y301A); assay: biochemical; assay type: binding
HIV-1 CA monomer (E187A) = HIV-1 CA monomer (E187A) (Human immunodeficiency virus type 1 group M subtype B, UniProt P12493, E319A); assay: biochemical; assay type: binding
HIV-1 CA monomer (L211A) [2] = target: HIV-1 CA monomer (L211A) (Human immunodeficiency virus type 1 group M subtype B, UniProt P12493, L343A); assay: biochemical; assay type: binding
HIV-1 CA monomer (L211A) [3] = assay: biochemical; assay type: binding; settings: CA L211A compared to WT CA
HIV-1 CA monomer (L211S) = HIV-1 CA monomer (L211S) (Human immunodeficiency virus type 1 group M subtype B, UniProt P12493, L343S); assay: biochemical; assay type: binding
HIV-1 CA monomer (N183A) = HIV-1 CA monomer (N183A) (Human immunodeficiency virus type 1 group M subtype B, UniProt P12493, N315A); assay: biochemical; assay type: binding
HIV-1 CA hexamer = HIV-1 CA hexamer (Human immunodeficiency virus type 1 group M subtype B, UniProt P12493, A146C/E177C/M317A/W316A); assay: BLI binding to CA hexamer
HIV-1 CA = target: T3, HIV-1 CA (Human immunodeficiency virus type 1 group M subtype B, UniProt P12493); assay: In vitro assembly of recombinant CA (absorbance at 350 nm); assay type: biochemical; settings: 2.5 M NaCl, absorbance at 350 nm over time
T3 construct: capsid proteins (CA) released by proteolytic processing of Gag; made in house
Protocol: To monitor the in vitro assembly of HIV-1 CA in the presence and absence of hit compounds, changes in sample absorbance over time at 350 nm were measured, as previously described ([Lanman et al., 2002]; [Tang et al., 2003]; [Xu et al., 2018]). To initiate the assay, 1 μL of 5 mM SA or SB was added to 74 μL of buffer composed of a mixture of 5 M NaCl and 200 mM NaH2PO4 (pH 8.0) in a ratio of 2:1 by volume. Subsequently, 25 μL of CA (120 μM) was added to each well and DMSO served as a vehicle control. After a 2-min equilibration period, sample absorbance values were measured at 350 nm every 60 s for 39 min using a Perkin Elmer Envision microplate reader and were corrected by subtracting the absorbance values of a blank sample without sodium chloride. The resulting data were analyzed using GraphPad Prism 5.0.
Under high ionic strength conditions, recombinant CA can spontaneously oligomerize and form open-ended helical tubes consisting of repeating CA hexamers. To investigate the impact of SA and SB on CA tube assembly, we monitored in vitro CA assembly in the presence and absence of SA and SB by measuring changes in light absorbance over time in 2.5 M NaCl. CA (25 μM) for CA. […] We used BLI to determine the KD values of SA and SB in the HIV-1 CA hexamer.
Figure 4 Sennoside A and Sennoside B induced CA multimerization in vitro. (A–B) Light scattering (absorbance at 350 nm) responses showing the rate and extent of in vitro CA (20 μM) assembly in 2.5 M NaCl, in absence of compounds (mock) and the presence of Sennoside A and Sennoside B or CAI. Data are representative of three independent experiments. (C–D) Representative binding sensorgrams depicting the interaction of SA or SB with CA hexamer assessed by bio-layer interferometry (BLI) detection.

[4] = target: T4, CA hexamer/CPSF6 peptide interaction (Human immunodeficiency virus type 1 group M subtype B, UniProt P12493, A146C/E177C/M317A/W316A); assay type: binding, HIV-1
T4 construct: capsid proteins (CA) released by proteolytic processing of Gag; made in house
Protocol: As mentioned previously, this pocket is the binding site for two host cell proteins, CPSF6 and NUP153 ([Price et al., 2014]). […] We then performed a BLI-based competition assay. CA hexamer at a concentration of 5 μM, either alone or in combination with high concentrations of SA or SB or PF-74, were used to bind to the SA biosensor loaded with biotinylated CPSF6_313–327 or NUP153_1407–1423.
Biotinylated hexameric CA was firstly loaded to streptavidin-coated biosensors. Then the biosensors were dipped into the plate wells containing CPSF6_308-327 or NUP153_1407–1423 in the absence or presence of PF74 or SA or SB. BLI signals were captured by Octet96 system and data were normalized according to the signal in the absence of compound. Comparisons between data were carried out using the paired t-test by GraphPad Prism 5.0. The double asterisk (^**) and three asterisks (^***) represent p < 0.01 and < 0.001 from the paired t test, respectively.

HIV-1 [5] = assay: Anti-HIV-1 activity, virus-induced cytopathic effect in C8166 cells; assay type: cell-based; settings: for IC50: Human immunodeficiency virus 1, M.O.I 0.03, 72 h, read-out: IC50 against HIV-1 induced CPE
Protocol: (§1) Anti-HIV-1 activity was determined by an assay based on virus-induced cytopathic effects (CPE) ([Zhang et al., 2020]). Briefly, C8166 cells were infected with HIV-1 at a multiplicity of infection (M.O.I) of 0.03, with DMSO or diluted SA or SB in 96-well plates. […] The cytotoxicity of the compounds was determined by a tetrazolium dye (MTT) based assay. C8166 cells were co-incubated with diluted SA or SB in 96-well plates. After 3 days, cell viability was determined using MTT, and the 50% cytotoxicity concentration (CC50) was calculated. […] Tenofovir disoproxil fumarate (TDF) was used as a positive control.
(§2) To further evaluate the antiviral effects of SA and SB, we tested them for protecting C8166 cells from HIV-1-induced CPE. The cytotoxic effect of these compounds on C8166 cells was also assessed.

Cytotoxicity, MTT assay = assay type: cell-based; settings: human, C8166 cells
Protocol: as §1, §2

[6] = target: HIV-1 reverse transcriptase-associated DNA Polymerase; parameters: method as in Esposito et al., 2016; settings: ref Esposito et al., 2016; cited from earlier work
RNase H = target: RNase H; parameters: method as in Esposito et al., 2016; settings: ref Esposito et al., 2016; cited from earlier work
integrase = target: integrase; parameters: method as in Esposito et al., 2016; settings: ref Esposito et al., 2016; cited from earlier work
protease of zika virus = settings: ref Coelho et al., 2022; cited from earlier work
HIV-1 [7] = test system: HIV-1; parameters: method as in Esposito et al., 2016; settings: cell-based assays, ref Esposito et al., 2016; read-out: EC50, anti-HIV-1 activity; cited from earlier work
SARS-CoV-2 main protease = settings: cited from earlier work
[8] = primary screening, compound at 50 μM, duplicate
[9] = 5 μM CA hexamer, PF74 2.5 μM, SA 225 μM, SB 175 μM

Q: Which inhibition at 50 µM [1] does the source give for O=C(O)CCCC[C@@H]1SC[C@@H]2NC(=O)N[C@@H]21 [Biotin] here?
A: 98.8%

Q: For CC[C@H](C)C[C@H](C)CCCCCCCCC(=O)N[C@H]1C[C@@H](O)[C@@H](NCCN)NC(=O)[C@@H]2[C@@H](O)CCN2C(=O)[C@H]([C@H](O)CCN)NC(=O)[C@H]([C@H](O)[C@@H](O)c2ccc(O)cc2)NC(=O)[C@@H]2C[C@@H](O)CN2C(=O)[C@H]([C@@H](C)O)NC1=O [Caspofungin], which IC50 [1] is on record?
A: 29500 nM

Q: What about the inhibition at 50 µM [1, 8] of the same molecule?
A: 94.2%

Q: Which inhibition at 50 µM [1, 8] does the source give for CCCCCCCCCCCC1=C(O)C(=O)C=C(O)C1=O [Embelin] here?
A: 94.3%

Q: Which IC50 [1] does the source give for O=C(O)c1cc(O)c2c(c1)[C@H]([C@H]1c3cc(C(=O)O)cc(O)c3C(=O)c3c(O[C@@H]4O[C@H](CO)[C@@H](O)[C@H](O)[C@H]4O)cccc31)c1cccc(O[C@@H]3O[C@H](CO)[C@@H](O)[C@H](O)[C@H]3O)c1C2=O [Sennoside A, sennoside A] here?
A: 180 nM

Q: And the inhibition at 50 µM [1, 8]?
A: 94.7%

Q: And the Kd (HIV-1 CA monomer (WT))?
A: 2340 nM

Q: And the Kd (HIV-1 CA monomer (Y169A))?
A: 8800 ± 290 nM

Q: And the Kd (HIV-1 CA monomer (E187A))?
A: 7690 ± 250 nM

Q: What about the Kd (HIV-1 CA monomer (L211A) [2]) of the same molecule?
A: 3170 ± 90 nM

Q: What about the KD fold change (HIV-1 CA monomer (L211A) [3]) of the same molecule?
A: 1.35

Q: And the Kd (HIV-1 CA monomer (L211S))?
A: 7000 ± 180 nM

Q: And the Kd (HIV-1 CA monomer (N183A))?
A: 1950 ± 60 nM

Q: And the Kd (HIV-1 CA hexamer)?
A: 1750 nM and 2250 nM

Q: What about the “effect on in vitro CA assembly” value (HIV-1 CA) of the same molecule?
A: increased in vitro CA assembly in a dose-dependent manner

Q: What about the “effect on CA hexamer/CPSF6 peptide interaction” value [4, 9] of the same molecule?
A: inhibited

Q: And the “selectivity index (SI = CC50/EC50)” value (HIV-1 [5])?
A: less than 10

Q: And the IC50 (HIV-1 [5])?
A: 2270 nM

Q: What about the CC50 at 3 days (Cytotoxicity, MTT assay) of the same molecule?
A: 22600 nM

Q: And the IC50 [6]?
A: 5300 nM

Q: What about the IC50 (RNase H) of the same molecule?
A: 1900 nM

Q: And the IC50 (integrase)?
A: 3800 nM

Q: What about the IC50 (protease of zika virus) of the same molecule?
A: 660 nM

Q: And the EC50 (HIV-1 [7])?
A: ~9000 nM

Q: With O=C(O)c1cc(O)c2c(c1)[C@@H]([C@H]1c3cc(C(=O)O)cc(O)c3C(=O)c3c(O[C@@H]4O[C@H](CO)[C@@H](O)[C@H](O)[C@H]4O)cccc31)c1cccc(O[C@@H]3O[C@H](CO)[C@@H](O)[C@H](O)[C@H]3O)c1C2=O [Sennoside B, sennoside B] as the molecule, how does the IC50 [1] read?
A: 80 nM

Q: What about the inhibition at 50 µM [1, 8] of the same molecule?
A: 95.1%

Q: And the Kd (HIV-1 CA monomer (WT))?
A: 1620 nM

Q: What about the Kd (HIV-1 CA monomer (Y169A)) of the same molecule?
A: 2800 ± 70 nM

Q: And the Kd (HIV-1 CA monomer (E187A))?
A: 6770 ± 200 nM

Q: What about the Kd (HIV-1 CA monomer (L211A) [2]) of the same molecule?
A: 2520 ± 70 nM

Q: And the Kd (HIV-1 CA monomer (L211S))?
A: 4840 ± 120 nM

Q: What about the Kd (HIV-1 CA monomer (N183A)) of the same molecule?
A: 3960 ± 110 nM

Q: What about the Kd (HIV-1 CA hexamer) of the same molecule?
A: 2250 nM and 1750 nM

Q: And the “effect on in vitro CA assembly” value (HIV-1 CA)?
A: increased in vitro CA assembly in a dose-dependent manner

Q: And the “effect on CA hexamer/CPSF6 peptide interaction” value [4, 9]?
A: inhibited

Q: And the “selectivity index (SI = CC50/EC50)” value (HIV-1 [5])?
A: less than 10

Q: And the IC50 (HIV-1 [5])?
A: 4730 nM

Q: And the CC50 at 3 days (Cytotoxicity, MTT assay)?
A: 33400 nM

Q: What about the IC50 (SARS-CoV-2 main protease) of the same molecule?
A: 104 nM

Q: With “CAI: dodecapeptide capsid assembly inhibitor identified by phage display, positive control (ITFEDLLDYYPGGGSK(Biotin))” as the molecule, how does the “effect on in vitro CA assembly” value (HIV-1 CA) read?
A: inhibited CA assembly in vitro

Q: Which “effect on CA hexamer/CPSF6 peptide interaction” value [4] does the source give for PF-74 here?
A: inhibited, to a degree
